What was measured:
[1] = tested on: cultured human mast cells (CHMC); assay: CHMC low cell density IgE activation: tryptase assay; assay type: cell-based; conditions: anti-IgE
In short: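 Degranulation is read as supernatant tryptase activity, using tryptase substrate incubated 30 min at room temperature. Before this, CHMC at low density (1000-1500 cells/well) rest 1 hr at 37° C and are triggered with anti-IgE for 30 min at 37° C.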

[2] = tested on: cultured human mast cells (CHMC); assay: CHMC low cell density ionomycin activation: tryptase assay; assay type: cell-based
[3] = tested on: bone marrow derived mast cells (BMMC); assay: BMMC high cell density IgE activation: hexosaminidase; assay type: cell-based, mouse; conditions: anti-IgE, second part of TABLE 1, read-out: BMMC anti-IgE hexos. IC50
Experimental: (§1) After sensitizing, cells are counted, pelleted (1000 rpm, 5-10 minutes), and resuspended at 1-3×10^6 cells/ml in MT buffer. Add 100 ul of cell suspension to each well and 100 ul of compound dilutions. The final vehicle concentration is 0.5% DMSO. Incubate at 37° C. (5% CO2) for 1 hour. After 1 hour of compound treatment, stimulate cells with 6× stimulus (60 ng/ml DNP-BSA). Mix wells with the cells and allow plates to incubate at 37° C. (5% CO2) for one hour. After 1 hour incubation, pellet cells (10 minutes, 1000 RPM) and collect 200 ul per well of the supernatant, being careful not to disturb pellet, and transfer to a clean tube or 96-well plate. Place the supernatant plate on ice. During the 4-5 hour step (see next) perform the hexosiminidase assay. Resuspend cell pellet in 240 ul WEI-conditioned media containing 0.5% DMSO and corresponding concentration of compound. Incubate BMMC cells for 4-5 hours at 37° C. (5% CO2). After incubation, pellet cells (1000 RPM, 10 minutes) and collect 225 ul per well and place in −80° C. until ready to perform ELISAS. ELISAS are performed on appropriately diluted samples (determined empirically for each donor cell population so that the sample measurement falls within the standard curve) following the supplier's instructions.
Hexosaminidase assay: In a solid black 96-well assay plate, add 50 uL hexosaminidase substrate (4-methylumbelliferyl-N-acetyl-(3-D-glucosaminide; 2 mM) to each well. Add 50 uL of BMMC cell supernatant (see above) to the hexoseaminidase substrate, place at 37° C. for 30 minutes and read the plate at 5, 10, 15, and 30 minutes on a spectrophotometer.

[4] = tested on: IgE-induced degranulation of tissue mast cells; assay: Mouse model of passive cutaneous anaphylaxis (PCA); assay type: in vivo; conditions: for % Inhibition (PCA): PO, 67% PEG/33% citrate buffer, pretreatment 15 min; for PCA response, positive controls (in words): mouse, in vivo
Experimental: This model provides a direct measure of IgE-induced degranulation of tissue mast cells. In this model, IgE primed animals are exposed to an allergen challenge, and the change in permeability of dermal vasculature that results from histamine release from mast cells is measured by change in the amount of dye leakage into surrounding tissue. Inhibition of mediator release by compounds that modulate mast cell degranulation is easily measured by extracting the dye from the tissue.
In the PCA assay mice are passively sensitized by intradermal injection with anti-dinitrophenol (DNP) IgE antibodies (Day −1). At predetermined times animals are treated with the test agent (Day 0). The modulatory effect of the agent on cutaneous mast cell degranulation is measured following intravenous injection of DNP conjugated to human serum albumin (HSA-DNP), together with Evans blue dye. The resulting cross-linking of the IgE receptor and subsequent mast cell degranulation-induced increase in vascular permeability is determined by measuring the amount of dye extravasation into the tissue. Dye is extracted from the tissue by formamide, and the absorbance of this extract is read at 620 nm.

[5] = tested on: bone marrow derived mast cells (BMMC); assay: BMMC high cell density IgE activation: histamine; assay type: cell-based, mouse; conditions: anti-IgE, second part of TABLE 1
Experimental: (§2) Inhibition of degranulation was measured at both low and high cell density by quantifying the release of the granule specific factors tryptase, histamine and hexosaminidase. Inhibition of release and/or synthesis of lipid mediators was assessed by measuring the release of leukotriene LTC4 and inhibition of release and/or synthesis of cytokines was monitored by quantifying TNF-α, IL-6 and IL-13. Tryptase and hexosaminidase were quantified using fluorogenic substrates as described in their respective examples. […] The protocols of the various assays are provided below.
as §1

[6] = tested on: bone marrow derived mast cells (BMMC); assay: BMMC high cell density IgE activation: LTC4; assay type: cell-based, mouse; conditions: anti-IgE, second part of TABLE 1
Experimental: as §2, §1

[7] = tested on: bone marrow derived mast cells (BMMC); assay: BMMC high cell density IgE activation: TNFalpha; assay type: cell-based, mouse; conditions: anti-IgE, second part of TABLE 1, read-out: BMMC anti-IgE TNF-alpha IC50
Experimental: as §2, §1

[8] = tested on: bone marrow derived mast cells (BMMC); assay: BMMC high cell density IgE activation: IL-6; assay type: cell-based, mouse; conditions: anti-IgE, second part of TABLE 1
Experimental: as §2, §1

| IC50 [1] | IC50 [2] | Compound | also measured |
| --- | --- | --- | --- |
| 1.02 µM | 3.1 µM | CCOC(=O)COc1ccc(Nc2ncc(F)c(Nc3ccc4c(c3)OCCO4)n2)cc1 [R925747, N2-(4-Ethoxycarbonylmethyleneoxyphenyl)-N4-(3,4-ethylenedioxyphenyl)-5-fluoro-2,4-pyrimidinediamine] | IC50 [3]: 3.1 µM |
|  |  | Fc1cnc(Nc2ccc3c(c2)OCCO3)nc1Nc1ccc2c(c1)OCCO2 [R926109, N2,N4-Bis(3,4-ethylenedioxyphenyl)-5-fluoro-2,4-pyrimidinediamine] | % Inhibition (PCA) ([4]; 50 mg/kg): 22%; % Inhibition (PCA) ([4]; 100 mg/kg): 32%; % Inhibition (PCA) ([4]; 200 mg/kg): 48%; FcεR-mediated vascular leakage with increasing doses (in words) ([4]; solution (67% PEG/33% citrate buffer) or aqueous suspension (1.5% Avicel)): dose-dependent inhibition |
| 2.91 µM | > 10 µM | CNC(=O)COc1cccc(Nc2nc(Nc3cccc(O)c3)ncc2C(F)(F)F)c1 [R926741, N2-(3-Hydroxyphenyl)-5-trifluoromethyl-N4-[3-(N-methylamino)carbonylmethyleneoxyphenyl]-2,4-pyrimidinediamine] | IC50 [3]: 0.961 µM; IC50 [5]: 1.02 µM; IC50 [6]: > 10 µM; IC50 [7]: 0.772 µM; IC50 [8]: 0.537 µM |
|  | > 10 µM | O=C(NC(CO)CO)c1cc2cc(Nc3ncc(F)c(Nc4ccc5c(c4)OCCO5)n3)ccc2o1 [R926785, N2-[2-(N-1,3-Dihydroxy-2-propylamino)carbonylbenzofuran-5-yl]-N4-(3,4-ethylenedioxyphenyl)-5-fluoro-2,4-pyrimidinediamine] | IC50 [3]: 0.989 µM; IC50 [5]: 0.561 µM; IC50 [6]: 1.41 µM; IC50 [7]: 1.31 µM; IC50 [8]: 0.513 µM |
|  | > 10 µM | Oc1cccc(Nc2nc(Nc3ccc4cn[nH]c4c3)ncc2F)c1 [R935191, 5-Fluoro-N4-(3-hydroxyphenyl)-N2-(indazolin-6-yl)-2,4-pyrimidinediamine] | IC50 [3]: 0.068 µM; IC50 [6]: 0.213 µM; IC50 [7]: 0.071 µM |
|  | > 10 µM | Cn1ncc2cc(Nc3ncc(F)c(Nc4cccc(O)c4)n3)ccc21 [R935194, 5-Fluoro-N4-(3-hydroxyphenyl)-N2-(1-methy-indazoline-5-yl)-2,4-pyrimidinediamine] | IC50 [5]: 0.054 µM; IC50 [6]: 0.493 µM; IC50 [8]: 0.034 µM |
|  | > 10 µM | CC(C)(C)c1cccc(Nc2nc(Nc3cccc(OCC(=O)NCC(O)CO)c3)ncc2F)c1 (stereo not shown) [R940277, N4-(3-tert-Butylphenyl)-N2-[3-(N-2,3-dihydroxypropylamino)carbonylmethyleneoxyphenyl]-5-fluoro-2,4-pyrimidinediamine] | IC50 [3]: 0.279 µM; IC50 [5]: 0.315 µM; IC50 [6]: 0.625 µM; IC50 [7]: 0.262 µM; IC50 [8]: 0.181 µM |
|  | > 10 µM | CC(C)c1cccc(Nc2nc(Nc3cccc(OCC(=O)NCC(O)CO)c3)ncc2F)c1 (stereo not shown) [R940290, N2-[3-(N-2,3-Dihydroxypropylamino)carbonylmethyleneoxyphenyl]-5-fluoro-N4-(3-isopropylphenyl)-2,4-pyrimidinediamine] | IC50 [5]: 0.545 µM; IC50 [6]: 0.59 µM; IC50 [8]: 0.1 µM |
| 0.345 µM | > 10 µM | CNC(=O)COc1cccc(Nc2ncc(F)c(Nc3ccc(OCCC(=O)OC)cc3)n2)c1 [R950346, N4-(4-Methoxycarbonylethyleneoxyphenyl)-5-fluoro-N2-[3-(N-methylamino)carbonylmethyleneoxyphenyl]-2,4-pyrimidinediamine] |  |
| 0.078 µM | > 10 µM | CNC(=O)COc1cccc(Nc2ncc(F)c(Nc3ccc4c(c3)C(O)CCO4)n2)c1 (stereo not shown) [R950349, N4-(4-Hydroxy-3,4-dihydro-2H-1-benzopyran-6-yl)-5-fluoro-N2-[3-(N-methylamino)carbonylmethyleneoxyphenyl]-2,4-pyrimidinediamine] |  |
| 1.35 µM | > 10 µM | CNC(=O)COc1cccc(Nc2ncc(F)c(Nc3cccc(C(=O)c4ccccc4)c3)n2)c1 [R950372, N4-(3-Phenylcarbonylphenyl)-5-fluoro-N2-[3-(N-methylamino)carbonylmethyleneoxyphenyl]-2,4-pyrimidinediamine] |  |
| 0.599 µM | > 10 µM | CNC(=O)COc1cccc(Nc2ncc(F)c(Nc3cccc(C(=NO)c4ccccc4)c3)n2)c1 [R950374, N4-(3-Phenylcarbonyloximephenyl)-5-fluoro-N2-[3-(N-methylamino)carbonylmethyleneoxyphenyl]-2,4-pyrimidinediamine] |  |
| 0.545 µM | > 10 µM | CC(=NO)c1cccc(Nc2ncc(F)c(Nc3cccc(C(C)=NO)c3)n2)c1 [R950379, N2,N4-Bis(3-methylcarbonyloximephenyl)-5-fluoro-2,4-pyrimidinediamine] |  |
| 3 µM | > 10 µM | ON=C(c1ccccc1)c1cccc(Nc2ncc(F)c(Nc3cccc(C(=NO)c4ccccc4)c3)n2)c1 [R950380, N2,N4-Bis(3-phenylcarbonyloximephenyl)-5-fluoro-2,4-pyrimidinediamine] |  |
| 0.956 µM | > 10 µM | CNC(=O)COc1cccc(Nc2ncc(F)c(Nc3ccc(OC(F)(F)F)c(C(=O)OC)c3)n2)c1 [R950392, N4-(3-Methoxycarbonyl-4-trifluoromethoxyphenyl)-5-fluoro-N2-[3-(N-methylamino)carbonylmethyleneoxyphenyl]-2,4-pyrimidinediamine] |  |
| 0.404 µM | > 10 µM | CNC(=O)COc1cccc(Nc2ncc(F)c(Nc3ccc4c(c3)C(NC(C)=O)CCO4)n2)c1 (stereo not shown) [R950393, N4-(4-Acetylamino-3,4-dihydro-2H-1-benzopyran-6-yl)-5-fluoro-N2-[3-(N-methylamino)carbonylmethyleneoxyphenyl]-2,4-pyrimidinediamine] |  |
|  |  | CN1CCC(=C2c3ccccc3C=Cc3ccccc32)CC1 [cyproheptadine, reference compound] | inhibition of the PCA response ([4]; 8 mg/kg, i.p., 30 minutes pretreatment time, n=23 experiments): 61%; PCA response, positive controls (in words) [4]: inhibit the PCA response |
|  |  | CN(C)CCOC(c1ccccc1)c1ccccc1 [diphenhydramine, reference compound] | PCA response, positive controls (in words) [4]: inhibit the PCA response |
| > 10 µM | > 10 µM | N2,N4-Bis(methoxycarbonylbenzyl)-5-cyano-2,4-pyrimidinediamine [R925819] |  |
| > 10 µM | > 10 µM | N2-(3,4-Ethylenedioxyphenyl)-5-ethoxycarbonyl-4-[N-(L)-phenyl glycinyl ethyl ester)-2-pyrimidineamine [R926536] |  |
| 0.589 µM | > 10 µM | N2-(3-Ethylcarboxy-4H-imidazo[5,1-c]-1,4-benzoxazin-6-yl)-5-fluoro-N4-(3-hydroxyphenyl)pyrimidinediamine [R909267] |  |
| 7.91 µM | > 10 µM | N2-(Carboxymethyleneaminophenyl)-5-fluoro-N4-[3-(2-hydroxyethyloxy)phenyl]-2,4-pyrimidinediamine [R950230] |  |
| 10 µM | > 10 µM | N2-[3-(N-2-Aminoethylamino)carbonylmethylene aminophenyl]-5-fluoro-N4-[3-(2-hydroxyethylenoxy)phenyl]-2,4-pyrimidinediamine [R950232] |  |

Reference: patent US9499493B2, “2,4-pyrimidinediamine compounds and their uses” (Rigel Pharmaceuticals, Inc., priority 2002, dated 2016)
